We go through two compounds from BindingDB's records for doi:10.1021/jm00045a012 (Dupont Pharmaceuticals, 1994).

Broadly, the IC50 is the concentration needed to halve the response being measured. Low values mean greater potency, high ones weaker potency.

The test deals with Stromelysin-1 (MMP-3) (Homo sapiens) (UniProt P08254). The experiment in a line: Tested for the inhibition of prostromelysin activation with no preincubation period.
Sequence of Stromelysin-1 (MMP-3) (Homo sapiens) (P08254 whole entry, looked up): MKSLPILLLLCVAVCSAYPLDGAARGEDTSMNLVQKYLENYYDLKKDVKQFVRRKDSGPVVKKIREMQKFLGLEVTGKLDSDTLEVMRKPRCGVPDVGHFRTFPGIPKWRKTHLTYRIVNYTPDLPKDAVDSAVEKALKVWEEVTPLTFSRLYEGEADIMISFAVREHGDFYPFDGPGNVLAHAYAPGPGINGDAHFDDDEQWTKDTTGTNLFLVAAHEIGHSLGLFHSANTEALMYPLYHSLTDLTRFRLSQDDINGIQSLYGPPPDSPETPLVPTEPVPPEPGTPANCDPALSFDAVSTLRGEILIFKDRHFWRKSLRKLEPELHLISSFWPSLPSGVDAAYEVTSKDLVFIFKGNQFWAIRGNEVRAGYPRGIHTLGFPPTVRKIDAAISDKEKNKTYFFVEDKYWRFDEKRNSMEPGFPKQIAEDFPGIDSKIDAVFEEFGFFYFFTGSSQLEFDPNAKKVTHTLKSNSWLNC

Compound `COc1ccc(OC)c(-n2sc3ncccc3c2=O)c1` [2-(2,5-Dimethoxy-phenyl)-isothiazolo[5,4-b]pyridin-3-one] returned an IC50 of 53 µM.
Next, `COc1ccc(-n2sc3ncccc3c2=O)c(OC)c1` [2-(2,4-Dimethoxy-phenyl)-isothiazolo[5,4-b]pyridin-3-one]: 62 µM.
